Reference: ChEMBL document CHEMBL1773038, “In silico and in vitro validation of serine hydroxymethyltransferase as a chemotherapeutic target of the antifolate drug pemetrexed” (Eur J Med Chem, 2011)

Tests used:
[1] = biological target: T1, Serine hydroxymethyltransferase, cytosolic (Homo sapiens, UniProt P34896); assay: Inhibition of human recombinant Serine hydroxymethyltransferase, cytosolic measured by slope intercepts of mixed-type inhibition against compound concentration by spectrophotometry
T1 sequence (P34896 whole entry): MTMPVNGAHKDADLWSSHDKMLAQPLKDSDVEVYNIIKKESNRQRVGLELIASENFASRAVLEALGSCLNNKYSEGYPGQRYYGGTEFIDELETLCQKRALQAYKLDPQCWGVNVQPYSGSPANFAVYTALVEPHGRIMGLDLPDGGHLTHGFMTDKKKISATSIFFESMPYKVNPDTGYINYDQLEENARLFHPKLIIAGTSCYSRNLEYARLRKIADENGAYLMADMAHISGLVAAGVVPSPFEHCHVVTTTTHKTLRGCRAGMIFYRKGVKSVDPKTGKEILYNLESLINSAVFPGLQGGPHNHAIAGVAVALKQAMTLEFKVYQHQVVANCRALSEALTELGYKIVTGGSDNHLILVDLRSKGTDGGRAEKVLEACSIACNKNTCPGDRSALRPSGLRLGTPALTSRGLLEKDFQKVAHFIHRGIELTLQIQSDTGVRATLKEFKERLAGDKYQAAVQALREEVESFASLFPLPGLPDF

[2] = biological target: T1, Serine hydroxymethyltransferase, cytosolic; assay: Mixed-type inhibition of human recombinant Serine hydroxymethyltransferase, cytosolic measured by Y-axes intercepts of mixed-type inhibition against compound concentration by spectrophotometry
[3] = biological target: T1, Serine hydroxymethyltransferase, cytosolic; assay: Competitive inhibition of human recombinant Serine hydroxymethyltransferase, cytosolic by spectrophotometry
[4] = biological target: T1, Serine hydroxymethyltransferase, cytosolic; assay: Binding affinity to human recombinant Serine hydroxymethyltransferase, cytosolic by isothermal titration calorimetry

Ki [1]: 33 µM
Ki [2]: 186 µM
Ki [3]: 19.1 µM
Kd [4]: 16.9 µM
Structure (SMILES): Nc1nc2[nH]cc(CCc3ccc(C(=O)N[C@@H](CCC(=O)O)C(=O)O)cc3)c2c(=O)[nH]1 [PEMETREXED]
